Converted amounts (≈) assume the structure as drawn.
Columns and labels:
Assay type in all cases: physicochemical
[1] = Particle size analysis before and after milling; conditions: for Particle size: 200 mg/mL, 1.0 mm zirconia beads, 3344 rpm
Description: To a milling vessel size of 0.6 liter of a Glen Dyno Mill about 70% volume of zirconia grinding media was charged. An agitator shaft activated the media, creating shearing and impacting forces. The rotation of the agitator imparted energy to the surrounding media and fractures the cyclocreatine solids suspended in water, resulting in overall reduction in particle size.
Water was charged into a stainless steel vessel equipped with overhead agitator and blanketed with nitrogen followed by the addition of cyclocreatine. The mixture was pumped via a peristaltic pump into the grinding chamber. The milled sample exiting the chamber was collected in another stainless steel vessel (also equipped with an overhead agitator and blanked with nitrogen) until the first vessel was empty at which time a three way valve was switched as to continue pumping the mixture in one of the vessels into the grinding chamber. The drug concentration in the suspension ranged from 10-20% w/v. […] The rotation of the disk accelerated the milling media radially. The suspension mixture flowed axially through the milling chamber where the shear forces generated during impaction of the milling media with the solid particles provided the energy input to fracture the drug into nanometer-sized particles. Up to 40% nanoparticles were observed. In another embodiment, up to about 10% nanoparticles by volume were observed. The temperature inside the grinding chamber was controlled by circulating coolant through the outer jacket. The resultant microsuspension had good flow characteristics and appeared milky (FIG. 2).
For example a 200 mg/mL solid concentration of formulation processed in a 0.6 liter sized grinding chamber filled with 1.0 mm diameter zirconia beads and a 3344 rpm agitator speed for a total of two hours produced samples with similar final particle size in three repeated experiments. In all instances, the particle size decreased markedly within 30 min processing time from the initial 400 μm to about 80 μm, but with little change observed between 30 and 120 min. Further prolonging in the milling times was not beneficial, because decreased particle sizes were not achieved. In addition to particle size analysis (FIG. 3), the SEM micrographs (FIG. 4) further confirmed that the milling process as effective in converting the original cyclocreatine particles into the low micron range.
(§1) The cyclocreatine samples were analyzed before and after milling (Example 1) to assess the effect of milling on the drug stability.

[2] = Stability test: cyclocreatine concentration in suspension formulation over 40 days; conditions: suspension in water (~200 mg/mL)
[3] = Drug stability: cyclocreatine degradation after milling
Experimental: as §1
After milling for about 45 min, the particle size of the micronized API appeared to have been reduced uniformly for the entire batch of sample.

[4] = Solubility of cyclocreatine in water
Experimental: The collected micronized API was then formulated with water to form an aqueous microsuspension. 20.0 grams of cyclocreatine was weighed into a graduated vessel. Approximately 80 mL of water was added and the solution mixed to allow partial dissolution. After mixing for 5 minutes, water was added to dilute to a final volume of 100 mL.

[5] = by process condition (un-milled vs wet bead mill)

NC1=NCCN1CC(=O)O [Cyclocreatine, cyclocreatine]
Nanoparticles observed ([1]; after wet bead milling): Up to 40%
Nanoparticles by volume observed ([1]; after wet bead milling, another embodiment, by volume): up to 10%
Particle Size (μm, Volume weighted average) [1, 5]: 400 μm
Particle size ([1]; initial, before wet milling): 400 μm
Particle size ([1]; within 30 min processing time): about 80 μm
Cyclocreatine concentration in the suspension sample ([2]; day 0): 177.1 ± 0.5 mg/g
Cyclocreatine concentration in the suspension sample ([2]; day 7): 174.6 ± 1.0 mg/g
Cyclocreatine concentration in the suspension sample ([2]; day 11): 175.7 ± 1.0 mg/g
Cyclocreatine concentration in the suspension sample ([2]; day 26): 176.9 ± 0.5 mg/g
Cyclocreatine concentration in the suspension sample ([2]; day 40): 180.1 ± 1.5 mg/g
Cyclocreatine degradation after milling process (%) [3, 5]: 0%
Stability during the milling process ([3]; dry milling (pin mill), about 45 min): stable
solubility [4]: 17 mg/mL (≈ 119 mM)

Source: patent publication US20180071261A1, “CYCLOCREATINE MICROSUSPENSION” (Lumos Pharma, Inc., priority 2015, published 2018)
